Reference: patent US20190298846A1, “CELL TARGETING CONJUGATES” (LinXis B.V., priority 2016, published 2019)
Square brackets hold non-standard residues; d marks the D form. Peptide text beside a SMILES is read from it. * marks the point of attachment. Dolaproine = CO[C@@H]([C@@H]1CCCN1)[C@@H](C)C(=O)O; Dil = CC[C@H](C)[C@H](NC)[C@@H](CC(=O)O)OC; X1 = O=C(CCCCCN1C(=O)C=CC1=O)NCCOCCOCCN*; NMe2Val = CC(C)[C@@H](C(=O)*)N(C)C

Columns and labels:
[1] = tested on: SKOV-3; assay: In vitro cell viability assay ([…] BLUE); type: cell-based
Procedure: (§1) BLUE® Assay (Promega). Before starting the assay, the AF-Lx and AF-Mal were quenched by incubation the compounds with 1 mol equiv. thiourea (2 hours, 37° C.) and n-acetyl-cysteine (30 minutes, 0° C.), respectively. The cells were trypsinized and plated in 96-well, flat-bottomed, tissue culture plates at day 0. On day 1, from the above mentioned compounds serial dilution series (9×4-fold dilutions) were made starting from 10 or 1000 nM (depending on type of cells and compounds) and added to the cells (in case of ADCs, concentration of the mAb was used). On day 5, the […] BLUE® reagent was added and incubated for 2 hours at 37° C., and viable cells were measured with a TeCan plate reader (Tecan Group Ltd.) at 560EX/590EM nm. […] The data were analyzed with Graphpad Prism 5 software.

[2] = tested on: NCI-N87; assay: In vitro cell viability assay ([…] BLUE); type: cell-based; conditions: concentration of the mAb for ADCs, day 5 readout
Procedure: as §1

[3] = tested on: JIMT-1; assay: In vitro cell viability assay ([…] BLUE); type: cell-based
Procedure: as §1

[4] = tested on: MDA-MB-231; assay: In vitro cell viability assay ([…] BLUE); type: cell-based
Procedure: as §1

[5] = tested on: SK-BR-3; assay: In vitro cell viability assay ([…] BLUE); type: cell-based
Procedure: as §1

[6] = tested on: NCI-N87 tumors; assay: In vivo therapy study, NCI-N87 xenografts; design: species or system nude mice; conditions: single bolus injection 15 mg/kg
Procedure: (§2) Body weight was measured three times per week and MTD was reached when weight loss was >10% compared with the control mice. […] For this purpose, seven groups of 8 or 9 mice with established NCI-N87 or JIMT-1 xenografts in both flanks were used. […] All mice received an i.p. bolus injection. In the study with the NCI-N87 tumors, Group 1 was the control group and received 100 μL of saline solution. […] In the study with the JIMT-1 tumors, Group 1 was the control group and received 100 μL of saline solution. […] Body weight and tumor volume were measured three times per week up to 4 months after end of treatment.

[7] = tested on: JIMT-1 tumors; assay: In vivo therapy study, JIMT-1 xenografts; design: species or system nude mice; conditions: single bolus injection (15 mg/kg; AF conjugates 15 and 30 mg/kg), follow-up to day 125
Procedure: as §2

[8] = tested on: all tested cell lines; assay: In vitro cell viability assay, drug-linkers versus ADCs; type: cell-based; conditions: AF-Lx quenched with thiourea, AF-Mal with n-acetyl-cysteine
Procedure: Before starting the assay, the AF-Lx and AF-Mal were quenched by incubation the compounds with 1 mol equiv. thiourea (2 hours, 37° C.) and n-acetyl-cysteine (30 minutes, 0° C.), respectively. The cells were trypsinized and plated in 96-well, flat-bottomed, tissue culture plates at day 0. On day 1, from the above mentioned compounds serial dilution series (9×4-fold dilutions) were made starting from 10 or 1000 nM (depending on type of cells and compounds) and added to the cells (in case of ADCs, concentration of the mAb was used). On day 5, the […] BLUE® reagent was added and incubated for 2 hours at 37° C., and viable cells were measured with a TeCan plate reader (Tecan Group Ltd.) at 560EX/590EM nm. Fluorescence values of the samples were corrected for background of cell culture medium, the results, presented as the percentage of survival, were calculated by dividing the fluorescence values of the treated cells by the values of the untreated control cells. The data were analyzed with Graphpad Prism 5 software.

Row | Compound | IC50 [1] [nM] | IC50 [2] [nM] | IC50 ([3]; JIMT-1, T-DM1-resistant) [nM] | potency / IC50 in JIMT-1 cell line, in words ([3]; T-DM1-resistant JIMT-1) | potency / IC50 in MDA-MB-231, in words ([4]; HER2-negative MDA-MB-231) | IC50 ([4]; MDA-MB-231, HER2-negative) [nM] | IC50 [5] [nM] | time at which tumors started regrowth [6] [days] | tumor growth response, in words [7] | potency of drug-linker lower compared to its corresponding ADC [8]
1 | ado-trastuzumab emtansine [T-DM1] | 0.013 | 0.105 | 7 | an order of magnitude higher | lower IC50 | 200 | 0.021 | 20 | minimal growth delay | 
2 | CC[C@H](C)[C@@H]([C@@H](CC(=O)N1CCC[C@H]1[C@H](OC)[C@@H](C)C(=O)N[C@H](Cc1ccccc1)C(=O)NCCOCCOCCNC(=O)CCCCCN1C(=O)C=CC1=O)OC)N(C)C(=O)[C@@H](NC(=O)[C@H](C(C)C)N(C)C)C(C)C [AF-Mal, AF-PEG1-amide-Hex-Mal] (NMe2Val-V[Dil][Dolaproine][dF]-X1) |  |  |  |  |  |  |  |  |  | 10 fold
3 | [Pt(en)(AF-(4-(12-amino-3-oxo-7,10-dioxa-2,4-diazadodecyl)piperidine))Cl](Cl) [AF-Lx] |  |  |  |  |  |  |  |  |  | 10^3-10^4 fold
